Measured values reported in US10894777B2, “TG2 inhibitor piperazine compounds and uses thereof” (UNIVERSITY OF OTTAWA, priority 2016, dated 2021).
Each block holds one molecule with its values, some of them ahead of it. Non-standard residues stand in square brackets, D forms with d. Residues, ends and D or L forms follow the SMILES beside them. *: point of attachment. DON = [N-]=[N+]=CC(=O)CC[C@H](N)C(=O)O; Cbz = O=C(OCc1ccccc1)*

Tests used:
[1] = system: TG2 fusion protein mCer-TG2-YFP; test: Fluorescence lifetime imaging (FLIM) of mCer-TG2-YFP conformation, SCC-13 cells; type: cell-based, human; conditions: 10 μM A23187, 24 h; control 2.94 ns
Description: We monitored the impact of each inhibitor on intracellular TG2 structure using FLIM (Fluorescence Lifetime Imaging Microscopy). FLIM is a quantitative method of assessing fluorescence lifetime that measures energy transfer between donor and accept probes Fluorescence lifetime is measured in nanoseconds and a short lifetime correlates with close contact between probes (FIG. 29B). An advantage of this method is that fluorescent lifetimes are independent of probe concentration. In the present experiments, we expressed in cells a TG2 fusion protein in which the donor probe (mCER) is fused to the N-terminus and the acceptor probe (YFP) at the C-terminus (FIG. 29B). mCER and YFP comprise an ideal donor/acceptor pair; the donor probe is excited by laser illumination and energy transfer to the acceptor is monitored. The fluorescent lifetime is shorter when TG2 is in the closed conformation which brings mCER and YFP close together. SCC-13 cells were electroporated with empty vector, mCER-TG2 or mCER-TG2-YFP.
Fluorescence lifetime imaging. Fluorescence lifetime images were acquired using FLIM system (Alba 5 from ISS). […] Emission was observed through bandpass filter 480/35 nm (Chroma Technology) and detected by a photomultiplier H7422-40 (Hamamatsu). FLIM data were acquired using time-domain modality (SPC-830 TCSPC module from Becker and Hickl GmbH). […] To account for intensity heterogeneity within single intensity images, two to five consecutive scans were acquired and summed to build FLIM intensity image for lifetime analysis. […] FLIM data were analyzed using VistaVision Suite software (Vista v.213 from ISS). Lifetime images were generated by fitting data using single exponential intensity decay model. Intensity threshold for lifetime analysis was set of at least 3-fold above the intensity of dim cells and fitting procedure was performed for binned pixels at level of 3 (7×7 pixels). Lifetime distribution within image is represented with histogram showing pixel frequency of specific lifetime. The average lifetime values with standard deviations were calculated based on all processed pixels in lifetime image. FRET values were calculated according to the formula ET=1−(τDA/τD), where τD is the lifetime of donor (mCer-TG2) and τDA is the lifetime of donor-acceptor pair (mCer-TG2—YFP).

SCC-13 cells = test: Spheroid formation / survival assay, SCC-13 cells (ECS cells); type: cell-based, human; conditions: for spheroid formation with kinase inhibitor: PF-573228 10 μM, 6 d
Description: Spheroid formation assay. Cells, maintained as monolayer cultures in growth medium consisting of DMEM (Invitrogen, Frederick, Md.) supplemented with 4.5 mg/ml D-glucose, […] L-glutamine, […] sodium pyruvate, and 5% fetal calf serum, were harvested, collected by centrifugation, and resuspended in spheroid medium comprising DMEM/F12 (1:1) (DMT-10-090-CV, Mediatech Inc., Manassas, Va.) supplemented with 2% B27 serum-free supplement (17504-044, Invitrogen, Frederick, Md.), 20 ng/ml EGF (E4269, Sigma, St. Louis, Mo.), 0.4% bovine serum albumin (B4287, Sigma) and 4 μg/ml insulin (19278 Sigma, St. Louis, Mo.). The cells (40,000) were plated in 9.6 cm^2 wells in Costar six well ultra-low attachment cluster dishes (4371, Corning, Tewksbury, Mass.). Spheroid size and number was monitored with time in culture as previously described (Adhikary, G. et al., PLoS One 8:e84324, 2013).
Spheroid formation assay. Spheroid formation assays were exactly as outlined previously (Adhikary, G. et al., PLoS ONE 8:e84324, 2013), except that the spheroids were grown in six well ultra-low attachment Costar cluster dishes (4371, Corning, Tewksbury, Mass.).
Spheroid formation assay. Spheroid formation assays were as reported previously (Adhikary, G. et al., PLoS One 8:e84324, 2013), except that the spheroids were grown in 6-well ultralow attachment Costar cluster dishes (Corning).

FAK kinase = FAK kinase (Homo sapiens, UniProt Q05397)
FAK kinase, sequence (Q05397 whole entry): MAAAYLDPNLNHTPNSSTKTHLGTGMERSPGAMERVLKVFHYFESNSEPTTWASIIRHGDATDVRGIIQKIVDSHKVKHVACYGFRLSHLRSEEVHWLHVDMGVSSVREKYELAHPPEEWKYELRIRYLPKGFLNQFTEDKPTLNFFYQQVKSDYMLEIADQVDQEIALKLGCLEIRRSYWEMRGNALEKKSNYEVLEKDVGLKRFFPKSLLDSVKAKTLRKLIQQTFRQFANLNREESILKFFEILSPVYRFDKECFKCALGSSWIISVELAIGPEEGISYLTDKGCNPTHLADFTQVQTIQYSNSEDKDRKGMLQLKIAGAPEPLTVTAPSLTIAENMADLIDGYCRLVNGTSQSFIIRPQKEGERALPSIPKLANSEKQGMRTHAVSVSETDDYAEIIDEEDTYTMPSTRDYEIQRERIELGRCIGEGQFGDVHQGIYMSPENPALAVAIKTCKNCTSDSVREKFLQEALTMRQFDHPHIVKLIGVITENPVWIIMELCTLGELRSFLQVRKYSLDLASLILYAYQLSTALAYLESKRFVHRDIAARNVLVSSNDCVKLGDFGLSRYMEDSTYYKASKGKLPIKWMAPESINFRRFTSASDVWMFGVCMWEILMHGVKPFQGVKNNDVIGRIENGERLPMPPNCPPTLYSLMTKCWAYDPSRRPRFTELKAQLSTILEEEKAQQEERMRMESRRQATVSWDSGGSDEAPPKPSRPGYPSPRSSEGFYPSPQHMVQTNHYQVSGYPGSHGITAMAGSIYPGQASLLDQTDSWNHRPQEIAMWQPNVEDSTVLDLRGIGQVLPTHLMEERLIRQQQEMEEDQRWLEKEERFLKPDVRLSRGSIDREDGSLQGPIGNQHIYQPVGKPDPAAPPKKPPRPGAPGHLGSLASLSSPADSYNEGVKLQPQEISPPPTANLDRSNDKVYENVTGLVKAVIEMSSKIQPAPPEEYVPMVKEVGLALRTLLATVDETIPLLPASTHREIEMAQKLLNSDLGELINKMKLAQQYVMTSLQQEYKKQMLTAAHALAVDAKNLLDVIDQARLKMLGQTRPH
Description: SCC-13 cells (40,000 per well) were grown in spheroid medium in attached (monolayer) or non-attached (spheroid, ECS cell). Cells were collected after 10 d and lysates were prepared for immunoblot. In (B), SCC-13 cells spheroid were grown for 8 d and extracts were immunoprecipitated as indicated prior to immunoblot. […] Cells were grown in spheroid medium in monolayer culture for 10 d prior to collection of lysates for immunoblot. […] In (J), (K), and (L), cells were double-electroporated with indicated siRNA and 24 h later plated for spheroid formation in the presence of the indicated inhibitor. […] The plotted values are mean±SEM and asterisks indicate significant change compared to control, n=3, p<0.005.
Immunoblot. Equivalent amounts of protein were electrophoresed on denaturing and reducing 10% polyacrylamide gels and transferred to nitrocellulose membrane. […] Secondary antibody binding was visualized using ECL Prime (Amersham) chemiluminescence detection technology.

EGFR = conditions: cited from earlier work; for EGFR levels: U87, but not T98G cells, 24 hrs
[2] = system: glioblastoma multiforme (GBM) cell lines; conditions: cited from earlier work
ΔNp63α = ΔNp63α level immunoblot, YAP1-siRNA SCC-13 cells; type: cell-based, human; conditions: 1 μM lactacystin, 24 h
Description: In (A), cells were grown in spheroid medium in monolayer or spheroid culture and after 10 d harvested for immunoblot. In (B), SCC13-Control-shRNA and SCC13-TG2-shRNA2 cells were grown in monolayer culture in spheroid medium and lysates were collected for immunoblot detection of the indicated epitopes. […] In (F), SCC13-Control-shRNA and SCC13-TG2-shRNA2 cells were grown as monolayers in spheroid medium and lysates collected at 6 d for marker detection. In (G), SCC-13 cells were double-electroporated with Control- or TG2-siRNA and given 24 h to recover before being seeded on chamber slides. The following day, cells were fixed in 4% paraformaldehyde, stained with anti-YAP1 and appropriate secondary antibody, and co-stained with DAPI. In (H), SCC-13 cells, double-electroporated with Control- or TG2-siRNA, were grown in spheroid medium for 48 h prior to extracts being prepared for assay of ΔNp63α mRNA by qRT-PCR. In (I), SCC-13 cells were grown as spheroids and at day 8 lysates were collected for immunoprecipitation/immunoblot. In (J), SCC-13 cells were double-electroporated with Control- or YAP-siRNA followed by treatment with 1 μM lactacystin in monolayer culture. Extracts were prepared after an additional 24 h. In (K), SCC-13 cells were double-electroporated with Control- or YAPsiRNA and after 2 d in monolayer culture extracts were prepared for immunoblot. […]

TG2 [3] = target: T1, TG2 (Homo sapiens, UniProt P21980); test: In vitro GTP binding assay after inhibition of hTG2 (BODIPY GTP-γ-S); conditions: inhibitor 2×KI, 30 min; 3 μM GTP-γ-S FL BODIPY
T1 sequence (P21980 1-687): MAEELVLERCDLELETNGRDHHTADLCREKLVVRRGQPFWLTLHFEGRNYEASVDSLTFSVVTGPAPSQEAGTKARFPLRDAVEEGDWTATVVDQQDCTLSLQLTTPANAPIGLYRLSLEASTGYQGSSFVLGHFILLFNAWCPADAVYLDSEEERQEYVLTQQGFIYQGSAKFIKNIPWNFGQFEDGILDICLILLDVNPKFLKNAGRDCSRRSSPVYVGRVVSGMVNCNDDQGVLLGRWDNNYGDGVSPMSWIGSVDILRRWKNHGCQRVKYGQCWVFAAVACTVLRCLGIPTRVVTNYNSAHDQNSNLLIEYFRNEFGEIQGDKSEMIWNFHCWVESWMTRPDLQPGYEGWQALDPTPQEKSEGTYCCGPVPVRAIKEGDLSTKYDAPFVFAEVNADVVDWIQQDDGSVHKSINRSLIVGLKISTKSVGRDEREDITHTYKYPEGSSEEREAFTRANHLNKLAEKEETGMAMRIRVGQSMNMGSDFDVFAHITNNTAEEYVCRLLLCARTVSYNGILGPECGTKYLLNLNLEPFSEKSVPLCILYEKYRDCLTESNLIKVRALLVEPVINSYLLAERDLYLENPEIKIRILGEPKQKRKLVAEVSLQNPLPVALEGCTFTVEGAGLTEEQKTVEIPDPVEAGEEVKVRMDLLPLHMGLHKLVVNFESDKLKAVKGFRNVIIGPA
Description: In vitro GTP binding assay. GTP binding was measured using a method similar to that reported previously (McEwen, D. P. et al., Anal. Biochem. (2001), 291 (1): 109-117). […] The buffer was then exchanged to 100 mM MOPS (pH=7.0), 1 mM EGTA and 5 mM MgCl2 to remove calcium using a 10-kDa molecular weight cut off membrane. The fluorescent GTP analog was then added to give a final concentration of 3.0 μM and fluorescence was then measured on a microplate reader after 10 minutes of incubation (Ex/Em: 490/520 nm).

TG2 [4] = target: T1, TG2; test: Kinetic inactivation of purified recombinant human TG2, continuous spectrophotometric activity assay (Examples 3, 10); type: biochemical; parameters: made in house; conditions: Table 4
Description: Kinetic studies were carried out in vitro, using purified recombinant human TG2 (Roy, I. et al., Protein Expr. Purif. 87: 41-46, 2013) and a direct, continuous spectrophotometric activity assay (Leblanc, A. et al., Biochemistry 40: 8335-8342, 2001).
Kinetics. Kinetic runs were performed at 25° C. in 100 mM MOPS buffer (pH 7.0) containing 3 mM CaCl2 and 50 μM EDTA. […] Stock solutions of the substrate and inhibitors were prepared in DMF such that the final concentration of this co-solvent was constant at 10% v/v. Reactions were initiated with the addition of enzyme with an activity of approximately 0.05 U/mL. Kinetic evaluation was carried out by the method of Stone and Hofsteenge (Stone, S. R. and Hofsteenge, J., Biochem. J. 230: 497-502, 1985). […] Observed first-order rate constants of inactivation were determined from non-linear regression, to a mono-exponential model. These rate constants were in turn fit to equation 1 by non-linear regression, providing the kinetic parameters
Kinetic parameters were determined as described above.

TG2 [5] = target: T1, TG2; test: Colorimetric transamidase activity assay (AL5 substrate), hTG2; type: biochemical
Description: In Vitro Assays. Colorimetric transamidase activity assay. The activities of hTG1, hTG2 and hTG6 were measured via a colorimetric assay using the chromogenic substrate Cbz-Glu(γ-p-nitrophenyl ester)Gly (AL5). The assay was conducted at 25° C. in 100 mM MOPS buffer (pH 6.5) containing 3.0 mM CaCl2 and 50 μM EDTA. […] A stock solution of AL5 was prepared in DMSO such that the final concentration of this co-solvent was constant at 2.5% v/v. Stock solutions of the inhibitors were made in the buffer system previously described. The reaction was initiated with the addition of 40-60 mU/mL of the respective enzyme (0.10 μM hTG1, 0.25 μM hTG2 or 0.32 μM hTG6). Product formation was monitored at 405 nm in a polystyrene 96-well microplate using a BioTek Synergy 4 plate reader. […] Observed first-order rate constants of inactivation (kobs) were determined from non-linear regression fit to a mono-exponential model (Equation 1) of the observed absorbance of the enzymatic hydrolysis product, p-nitrophenolate (pNP). […] Experiments were done in triplicate and variation between repeats was less than 30%.

Compound: CNc1ccc2oc(C[C@H]3O[C@@]4(CC[C@H]3C)O[C@H]([C@H](C)C(=O)c3ccc[nH]3)[C@H](C)C[C@H]4C)nc2c1C(=O)O [Compound A23187, reference compound]
fluorescence lifetime of mCer-TG2-YFP [1]: ~3.1 ns

FAK kinase activity (FAK kinase): reduced FAK kinase activity
Compound: CS(=O)(=O)c1cccc(CNc2nc(Nc3ccc4c(c3)CCC(=O)N4)ncc2C(F)(F)F)c1 [PF-573228, reference compound]
spheroid formation with kinase inhibitor (SCC-13 cells): markedly reduced spheroid formation

Compound: COC(=O)[C@H](CC(C)C)NC(=O)[C@@H]1CCCN1C(=O)[C@@H](NC(=O)[C@H](CCC(=O)C=[N+]=[N-])NC(=O)OCc1ccccc1)C(C)C [Z-DON] (Cbz-[DON]VPL-OMe)
EGFR levels (EGFR): reduced the levels of EGFR
proliferation of GBM cell lines [2]: reduce proliferation in two out of three glioblastoma multiforme (GBM) cell lines tested

Compound: CN(C)c1cccc2c(S(=O)(=O)NCCCCCN)cccc12 [MDC, monodansylcadaverine]
EGFR levels (EGFR): reduced the levels of EGFR
EGFR phosphorylation in response to EGF (EGFR; U87 cells, 30 min pretreatment): greatly reduced the extent of EGFR phosphorylation
proliferation of GBM cell lines [2]: reduce proliferation in two out of three glioblastoma multiforme (GBM) cell lines tested

Compound: CC(=O)N[C@@H](CSC(=O)[C@]1([C@@H](O)C(C)C)NC(=O)[C@H](C)[C@@H]1O)C(=O)O [lactacystin]
ΔNp63α reduction caused by YAP1-siRNA (ΔNp63α): partially reversed

Compound: C=CC(=O)NCCCC[C@H](NC(=O)OCc1ccccc1)C(=O)N1CCN(C(=O)c2cccc3ccccc23)CC1 [AA9, (S)-benzyl (1-(4-(1-naphthoyl)piperazin-1-yl)-6-acrylamido-1-oxohexan-2-yl)carbamate]
GTP binding of hTG2 after incubation with inhibitor (TG2 [3]): abolish GTP binding nearly completely

Compound: CC(C)(C)n1nc(-c2ccc(Cl)cc2)c2c(N)ncnc21 [PP2, reference compound]
spheroid formation with kinase inhibitor (SCC-13 cells): suppressed spheroid formation

melting point: 59 to 61 °C
kinact (TG2 [4]): 0.0082 s⁻¹
kinact/KI (TG2 [4]; read-out: kinact/Ki (μM^−1 min^−1), for ^a no saturation observed, efficiency obtained from initial slope): 2130 M⁻¹ s⁻¹
rate constant of inactivation relative to VA4 (TG2 [5]): more than three-fold less
kinact (TG2 [5]; Table 7, read-out: kinact (converted)): 0.0065 s⁻¹
kinact/KI (TG2 [5]; read-out: kinact/KI (10^3M^−1 min^−1), Table 7): 620 M⁻¹ s⁻¹
Compound: C=CC(=O)NCCCC[C@H](NC(=O)OCc1ccccc1)C(=O)N1CCN(S(=O)(=O)c2cccc3ccccc23)CC1 [Compound 128, (S)-benzyl 6-acrylamido-1-(4-(naphthalen-1-ylsulfonyl)piperazin-1-yl)-1-oxohexan-2-yl-carbamate]

Compound: NCCCCCNC(=S)Nc1ccc2c(c1)C(=O)OC21c2ccc(O)cc2Oc2cc(O)ccc21 [FC, fluorescein cadaverine, reference compound]
spheroid number, pre-formed spheroids (SCC-13 cells; spheroids grown for 8 days, then treated): reduced spheroid number
